In data set [1] the test system is Histoplasma capsulatum. The format is cell-based.
Data set [2] concerns A. fumigatus s 1008. Put plainly: In vitro MIC, NCCLS M38P broth method (RPMI 1640/MOPS pH7), Aspergillus fumigatus. To be noted: for MIC, A. fumigatus 1008: A. fumigatus strain 1008. The format is cell-based.
For data set [3], the system named is Candida. Put plainly: In vitro MIC, NCCLS M27A, Candida species. The format is cell-based. Set-up: MIC, Candida albicans 1.549 / MIC, Candida albicans Y-01-19 / MIC, C. krusei 766-1 / MIC, C. krusei Q. C / MIC, Candida tropicalis ATCC / MIC, C. glabrata 90030: unit not given beside the values; MIC, Candida albicans A 26 / MIC, C. parapsilosis Q. C.: unit not given here. To be noted: for MIC, C. glabrata 90030: C. glabrata strain 90030; for MIC, C. krusei 766-1: C. krusei strain 766-1; for MIC, C. krusei Q. C: C. krusei strain Q. C; for MIC, C. parapsilosis Q. C.: C. parapsilosis strain Q. C.; for MIC, Candida albicans 1.549: Candida albicans strain 1.549; for MIC, Candida albicans A 26: Candida albicans strain A 26; for MIC, Candida albicans Y-01-19: Candida albicans strain Y-01-19.

Data set [4] relates to Cryptococcus neoformans. Put plainly: In vitro MIC, NCCLS M27A, Cryptococcus neoformans. The format is cell-based. Also on record: MIC, C. neoformans I: unit not given beside the values; MIC, C. neoformans M 106: unit not given here. Particulars: for MIC, C. neoformans I: C. neoformans strain I; for MIC, C. neoformans M 106: C. neoformans strain M 106.

≈ marks a conversion by molar mass, not a printed value.

`Cc1ccc(N2CCN(c3ccc(-n4cnn(CC(O)(Cn5cncn5)c5ccc(F)cc5F)c4=O)cc3)CC2)cc1C` (stereo not shown) [Compound 56, 2-[2-(2,4-Difluorophenyl)-2-hydroxy-3-(1H-1,2,4-triazol-1-yl)propyl]-4-{4-[4-(3,4-dimethylphenyl)-1-piperazinyl]phenyl}-3-(2H,4H)-1,2,4-triazolone] displayed a melting point of 136 to 137 °C. The molecule also registered an MIC, H. capsulatum in data set [1] of 0.004 µg/mL (≈ 0.00682 µM). Also, in data set [2], the “MIC, A. fumigatus 1008” value is listed as >16. In addition, in data set [3], the “MIC, C. glabrata 90030” value is listed as 0.25; the “MIC, C. krusei 766-1” value came out at 1.00; the “MIC, C. krusei Q. C” value is on record as 0.25; the “MIC, C. parapsilosis Q. C.” value is reported as <0.03. Moreover, in data set [3], the “MIC, Candida albicans 1.549” value is reported as 0.06; the “MIC, Candida albicans A 26” value was <0.03; the “MIC, Candida albicans Y-01-19” value came to 0.03; the “MIC, Candida tropicalis ATCC” value was <0.03. Also, in data set [4], the “MIC, C. neoformans I” value is listed as <0.03 and the “MIC, C. neoformans M 106” value stood at 0.03.
`Nc1ccc(N2CCN(c3ccc(-n4cnn(CC(O)(Cn5cncn5)c5ccc(F)cc5F)c4=O)cc3)CC2)c(N)c1` (stereo not shown) [Compound 38, 2-[2-(2,4-Difluorophenyl)-2-hydroxy-3-(1H-1,2,4-triazol-1-yl)propyl]-4-{4-[4-(2,4-diaminophenyl)-1-piperazinyl]phenyl}-3-(2H,4H)-1,2,4-triazolone]: the melting point lay in the range of 215 to 222 °C. Moreover, the MIC, H. capsulatum in data set [1] is > 16 µg/mL. The “MIC, A. fumigatus 1008” value in data set [2] was >16. Further, in data set [3], the “MIC, C. glabrata 90030” value was >16; the “MIC, C. krusei 766-1” value is >16; the “MIC, C. krusei Q. C” value is reported as >16; the “MIC, C. parapsilosis Q. C.” value is >16. Moreover, in data set [3], the “MIC, Candida albicans 1.549” value is given as >16; the “MIC, Candida albicans A 26” value is recorded as >16; the “MIC, Candida albicans Y-01-19” value is >16; the “MIC, Candida tropicalis ATCC” value is recorded as >16. In addition, in data set [4], the “MIC, C. neoformans I” value is >16 and the “MIC, C. neoformans M 106” value is recorded as >16.
For `O=c1n(-c2ccc(N3CCN(c4ccc(F)cc4)CC3)cc2)cnn1CC(O)(Cn1cncn1)c1ccc(F)cc1F` (stereo not shown) [Compound 43, 2-[2-(2,4-Difluorophenyl)-2-hydroxy-3-(1H-1,2,4-triazol-1-yl)propyl]-4-{4-[4-(4-fluorophenyl)-1-piperazinyl]phenyl}-3-(2H,4H)-1,2,4-triazolone], the melting point lay in the range of 173 to 177 °C. Moreover, the MIC, H. capsulatum in data set [1] is < 0.02 µg/mL. Further, the “MIC, A. fumigatus 1008” value in data set [2] is given as >12.5. In data set [3], the “MIC, C. glabrata 90030” value is recorded as 0.40; the “MIC, C. krusei 766-1” value is listed as 1.56; the “MIC, C. krusei Q. C” value was 0.20; the “MIC, C. parapsilosis Q. C.” value was <0.02. In data set [3], the “MIC, Candida albicans 1.549” value was <0.02; the “MIC, Candida albicans A 26” value is <0.02; the “MIC, Candida albicans Y-01-19” value turned out to be 0.05; the “MIC, Candida tropicalis ATCC” value is 12.50. For the same molecule, in data set [4], the “MIC, C. neoformans I” value is reported as 0.05 and the “MIC, C. neoformans M 106” value is 0.05.
Molecule `O=c1n(-c2ccc(N3CCN(c4ccc(Cl)c(Cl)c4)CC3)cc2)cnn1CC(O)(Cn1cncn1)c1ccc(F)cc1F` (stereo not shown) [Compound 37, 2-[2-(2,4-Difluorophenyl)-2-hydroxy-3-(1H-1,2,4-triazol-1-yl)propyl]-4-{4-[4-(3,4-dichlorophenyl)-1-piperazinyl]phenyl}-3-(2H,4H)-1,2,4-triazolone] returned a melting point of 194 to 196 °C. The MIC, H. capsulatum in data set [1] is < 0.03 µg/mL. Also, in data set [2], the “MIC, A. fumigatus 1008” value was >16. In data set [3], the “MIC, C. glabrata 90030” value is listed as 0.12; the “MIC, C. krusei 766-1” value worked out at 0.25; the “MIC, C. krusei Q. C” value came out at 0.06; the “MIC, C. parapsilosis Q. C.” value is <0.03. In data set [3], the “MIC, Candida albicans 1.549” value is recorded as 0.06; the “MIC, Candida albicans A 26” value is listed as <0.03; the “MIC, Candida albicans Y-01-19” value is 0.06; the “MIC, Candida tropicalis ATCC” value is <0.03. Moreover, in data set [4], the “MIC, C. neoformans I” value is reported as <0.03 and the “MIC, C. neoformans M 106” value is on record as <0.03.
`COc1ccccc1N1CCN(c2ccc(-n3cnn(CC(O)(Cn4cncn4)c4ccc(F)cc4F)c3=O)cc2)CC1` (stereo not shown) [Compound 42, 2-[2-(2,4-Difluorophenyl)-2-hydroxy-3-(1H-1,2,4-triazol-1-yl)propyl]-4-{4-[4-(2-methoxyphenyl)-1-piperazinyl]phenyl}-3-(2H,4H)-1,2,4-triazolone] registered a melting point of 95 to 97 °C. Besides, the MIC, H. capsulatum in data set [1] turned out to be 0.05 µg/mL (≈ 0.0849 µM). The “MIC, A. fumigatus 1008” value in data set [2] is >12.5. Also, in data set [3], the “MIC, C. glabrata 90030” value came out at 1.56; the “MIC, C. krusei 766-1” value is 3.12; the “MIC, C. krusei Q. C” value was 1.56; the “MIC, C. parapsilosis Q. C.” value is on record as <0.02. In addition, in data set [3], the “MIC, Candida albicans 1.549” value came out at 0.40; the “MIC, Candida albicans A 26” value is listed as 0.05; the “MIC, Candida albicans Y-01-19” value came to 12.50; the “MIC, Candida tropicalis ATCC” value came out at 12.50. In data set [4], the “MIC, C. neoformans I” value is reported as 0.20 and the “MIC, C. neoformans M 106” value came to 0.80.
In the case of `O=c1n(-c2ccc(N3CCN(c4ccc(F)c(F)c4)CC3)cc2)cnn1CC(O)(Cn1cncn1)c1ccc(F)cc1F` (stereo not shown) [Compound 55, 2-[2-(2,4-Difluorophenyl)-2-hydroxy-3-(1H-1,2,4-triazol-1-yl)propyl]-4-{4-[4-(3,4-difluorophenyl)-1-piperazinyl]phenyl}-3-(2H,4H)-1,2,4-triazolone], the melting point is 117 to 118 °C. Besides, in data set [1], the MIC, H. capsulatum was found to be 0.004 µg/mL (≈ 0.00673 µM). The “MIC, A. fumigatus 1008” value in data set [2] is >16. In addition, in data set [3], the “MIC, C. glabrata 90030” value worked out at 0.25; the “MIC, C. krusei 766-1” value worked out at 1.00; the “MIC, C. krusei Q. C” value is recorded as 0.12; the “MIC, C. parapsilosis Q. C.” value is <0.03. Also, in data set [3], the “MIC, Candida albicans 1.549” value is given as 0.03; the “MIC, Candida albicans A 26” value is reported as <0.03; the “MIC, Candida albicans Y-01-19” value came out at 0.03; the “MIC, Candida tropicalis ATCC” value is recorded as <0.03. In data set [4], the “MIC, C. neoformans I” value is on record as <0.03 and the “MIC, C. neoformans M 106” value came to 0.02.
`COC(=O)Cc1ccc(N2CCN(c3ccc(-n4cnn(CC(O)(Cn5cncn5)c5ccc(F)cc5F)c4=O)cc3)CC2)cc1` (stereo not shown) [Compound 93, 2-[2-(2,4-Difluorophenyl)-2-hydroxy-3-(1H-1,2,4-triazol-1-yl)propyl]-4-{4-[4-(4-(2-methoxy-2-oxoethyl)phenyl)-1-piperazinyl]phenyl}-3-(2H,4H)-1,2,4-triazolone] had a melting point of 66 to 69 °C. The “MIC (υg/ml) (A. fumigatus s 1008)” value in data set [2] was >12.5 µg/mL.
`O=c1n(-c2ccc(N3CCN(c4cc(Cl)cc(Cl)c4)CC3)cc2)cnn1CC(O)(Cn1cncn1)c1ccc(F)cc1F` (stereo not shown) [Compound 61, 2-[2-(2,4-Difluorophenyl)-2-hydroxy-3-(1H-1,2,4-triazol-1-yl)propyl]-4-{4-[4-(3,5-dichlorophenyl)-1-piperazinyl]phenyl}-3-(2H,4H)-1,2,4-triazolone] returned a melting point of 222 to 225 °C. For the same molecule, in data set [1], the MIC, H. capsulatum is < 0.03 µg/mL. Also, the “MIC, A. fumigatus 1008” value in data set [2] is listed as >16. For the same molecule, in data set [3], the “MIC, C. glabrata 90030” value is recorded as 0.50; the “MIC, C. krusei 766-1” value stood at 0.50; the “MIC, C. krusei Q. C” value came out at 0.25; the “MIC, C. parapsilosis Q. C.” value was <0.03. In data set [3], the “MIC, Candida albicans 1.549” value is recorded as 0.25; the “MIC, Candida albicans A 26” value was <0.03; the “MIC, Candida albicans Y-01-19” value is listed as 0.12; the “MIC, Candida tropicalis ATCC” value was <0.03. Besides, in data set [4], the “MIC, C. neoformans I” value is on record as <0.03 and the “MIC, C. neoformans M 106” value was <0.03.
For `O=c1n(-c2ccc(N3CCN(c4ccc(CCO)cc4)CC3)cc2)cnn1CC(O)(Cn1cncn1)c1ccc(F)cc1F` (stereo not shown) [Compound 95, 2-[2-(2,4-Difluorophenyl)-2-hydroxy-3-(1H-1,2,4-triazol-1-yl)propyl]-4-{4-[4-(4-(2-hydroxyethyl)phenyl)-1-piperazinyl]phenyl}-3-(2H,4H)-1,2,4-triazolone], the melting point fell in the range of 114 to 115 °C. The “MIC (υg/ml) (A. fumigatus s 1008)” value in data set [2] is >12.5 µg/mL.
Turning to `O=C(O)CCc1ccc(N2CCN(c3ccc(-n4cnn(CC(O)(Cn5cncn5)c5ccc(F)cc5F)c4=O)cc3)CC2)cc1` (stereo not shown) [Compound 94, 2-[2-(2,4-Difluorophenyl)-2-hydroxy-3-(1H-1,2,4-triazol-1-yl)propyl]-4-{4-[4-(4-(carboxyethyl)-phenyl)-1-piperazinyl]phenyl}-3-(2H,4H)-1,2,4-triazolone], the melting point is 235 to 239 °C. In addition, the “MIC (υg/ml) (A. fumigatus s 1008)” value in data set [2] is >12.5 µg/mL.
Take `Cc1ccc(Cl)cc1N1CCN(c2ccc(-n3cnn([C@H](C)[C@@](O)(Cn4cncn4)c4ccc(F)cc4F)c3=O)cc2)CC1` [Compound 22, 2-{[1R2S/1S2R]-2-(2,4-Difluorophenyl)-2-hydroxy-1-methyl-3-(1H-1,2,4-triazol-1-yl)propyl}-4-{4-[4-(5-chloro-2-methylphenyl)-1-piperazinyl]phenyl}-3-(2H,4H)-1,2,4-triazolone]: the MIC, H. capsulatum in data set [1] is > 16 µg/mL. The “MIC, A. fumigatus 1008” value in data set [2] is listed as >16. In addition, in data set [3], the “MIC, C. glabrata 90030” value is 1.00; the “MIC, C. krusei 766-1” value is recorded as 8.00; the “MIC, C. krusei Q. C” value is 1.00; the “MIC, C. parapsilosis Q. C.” value was 0.25. In data set [3], the “MIC, Candida albicans 1.549” value stood at 2.00; the “MIC, Candida albicans A 26” value is recorded as <0.03; the “MIC, Candida albicans Y-01-19” value is listed as 1.00; the “MIC, Candida tropicalis ATCC” value was <0.03. Moreover, in data set [4], the “MIC, C. neoformans I” value turned out to be 0.12 and the “MIC, C. neoformans M 106” value amounted to 0.06.

As a reminder, the melting point is the temperature of the solid-liquid transition.

Source of the values: patent US6670363B1, “Azole compounds as therapeutic agents for fungal infections” (Ranbaxy Laboratories Limited, priority 2000, dated 2003).
